Measured values from US10544138B2, “Tricyclic kinase inhibitors of MELK and methods of use” (Dana-Farber Cancer Institute, Inc., priority 2015, dated 2020).

Columns and labels:
[1] = target: T1, Aurora A (Homo sapiens, UniProt O14965); assay: Recombinant mitotic kinase assay, Aurora A; type: biochemical; settings: recombinant kinases
T1 sequence (O14965 1-403): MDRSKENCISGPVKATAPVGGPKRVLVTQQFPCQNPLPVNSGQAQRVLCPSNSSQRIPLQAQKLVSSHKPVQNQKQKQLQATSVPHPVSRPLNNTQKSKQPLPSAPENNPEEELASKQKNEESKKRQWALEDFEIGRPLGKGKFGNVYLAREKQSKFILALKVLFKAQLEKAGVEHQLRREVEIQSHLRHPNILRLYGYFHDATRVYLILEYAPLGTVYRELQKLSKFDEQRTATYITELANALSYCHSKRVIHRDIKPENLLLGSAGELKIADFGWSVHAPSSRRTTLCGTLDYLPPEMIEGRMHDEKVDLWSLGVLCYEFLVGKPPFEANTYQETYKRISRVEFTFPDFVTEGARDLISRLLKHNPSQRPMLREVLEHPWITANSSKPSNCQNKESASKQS
Method: […] assays were performed with recombinant protein of the indicated mitotic kinase (left) and AMPK family kinases (right) in the presence of THZ-4-63-1. […] Cells were treated with nocodazole (100 ng/ml) for 18 h or not treated (Asyn., asynchronous). Nocodazole-arrested mitotic cells (M) were isolated via shake-off. The attached cells enriched in G2 phase (G2) were harvested. A portion of the mitotic cells were washed off nocodazole and released into G1 phase after 4 hours of incubation (G1). […] In Panel D, mitotic lysates were prepared from the indicated cells, and treated with λ-phosphatase at 30° C. In Panel E, nocodazole-arrested mitotic cells were treated with increasing concentration of THZ-4-63-1 for 30 min. Cell lysates were subjected to immunoblotting.
To discover a selective MELK inhibitor, a few molecule scaffolds with the potential of binding to MELK were identified, including 2,4-disubstituted pyrimidines and benzonaphthyridinones. […] To investigate if THZ-4-63-1 confers selective inhibition on MELK, we tested its effect on other mitotic kinases. In assays using recombinant kinases, MELK kinase activity was 20-fold more sensitive to THZ-4-63-1, than that of Aurora A, Aurora B, CDK1, or PLK1 (FIG. 1B).

[2] = test system: U2OS cells; assay: Live-cell imaging of mitotic progression in U2OS-GFP-H2B cells; type: cell-based, human; settings: 1 μM, asynchronized U2OS cells; control 31.1 min
Method: (§1) U2OS-GFP-H2B cells were treated with vehicle control (0.02% DMSO, v/v) or 1 μM THZ-4-63-1, and subjected to live imaging. Time is given in hours:minutes, relative to the initial time of drug treatment. The arrow points to chromosomes that haven't incorporated into the metaphase plate. […] MDA-MB-468 cells expressing tet-on-shMELK and GFPH2B cells were treated with doxycycline for three days, before subjected to live imaging. Panel D contains images of immunoblotting of lysates from cells treated as in Panel C. Panel E contains images showing mitotic cell death in a cell treated with THZ-4-63-1. The table indicates the quantification of cell death events. Panel F contains images showing that treatment with THZ-4-63-1 impairs chromosome alignment. Cells were treated with DMSO control, or THZ-4-63-1 (5 μM) for 4 hours, followed by MG132 (10 μM) for 1 h. Cells were fixed and stained with anti-CREST, anti-α-tubulin, and DAPI to visualize chromosomes and kinetochores. The histogram indicates the quantifications of cells in metaphase with misaligned chromosomes.
To utilize this novel compound for probing the roles of MELK in mitosis, we first treated asynchronized U2OS cells with THZ-4-63-1 (1 μM), and subjected the cells for live-cell imaging. The fusion protein GFP-Histone H2B was stably introduced into the cells to facilitate observing chromosome dynamics^2,7. […]

[3] = test system: mitotic cells; assay: Mitotic cell death, time-lapse imaging; type: cell-based
Method: as §1
Perturbation of normal mitotic kinetic can lead to various cellular outcomes including cell death.

[4] = test system: metaphase chromosome alignment; assay: Metaphase chromosome alignment, immunofluorescence after MG132; type: cell-based; settings: 5 μM for 4 h followed by MG132 (10 μM) 1 h
Method: as §1
Indeed, we observed in asynchronized cells that MELK inhibition caused the appearance of scatted chromosome near the metaphase plate (arrowed, FIG. 2A). […]

[5] = test system: Histone H3 phosphorylation at Thr3; assay: Histone H3 Thr3 phosphorylation in arrested mitotic cells, immunoblotting; type: cell-based; settings: paclitaxel- or nocodazole-arrested mitotic cells, 30 min, with MG132
Method: Cell lysates were prepared for immunoblotting. […] HeLa cells were treated with DMSO or THZ-4-63-1 (5 μM) for 4 h followed by 1 h treatment of MG132 (10 μM). Cells were fixed and stained with anti-H3T3ph and anti-CREST. […] Cells were treated as in FIG. 2, Panel D, and additionally treated with MG132 (10 μM) for 1 h before fixation. The histogram indicates the quantification of H3S10ph signal. […] MCF-10A cells stably expressing empty vector (EV) or MELK were fixed for immunostaining. Images were captured with identical exposure time. H3T3ph intensity was quantified by the use of ImageJ. […] Recombinant MELK protein (kinase domain) was incubated with recombinant Histone H3 for 30 min at 30° C. Samples were subjected to immunoblotting using the indicated antibodies. […] Cells stably expressing GFP-MELK were fixed by formaldehyde and stained with anti-H3S10ph. […] Asynchronized (Async.) or nocodazole-arrested mitotic cells were subjected to fractionation, with sample prepared for immunoblotting. Panels H and I are images showing that MELK inhibition impairs the localization of chromosome passenger complex (CPC), indicated by the immunofluorescence detecting Survivin (G) and Aurora B (H). In addition to the presence of doxycyclin or THZ-4-63-1, cells were treated with nocodazole (0.33 μM) and MG132 (10 μM) for 3 h before fixation.
Cell lysates were prepared for immunoblotting. […]

MELK kinase activity more sensitive than that of Aurora A [1]: 20 fold
Compound: CN(C)Cc1ccc(-n2c(=O)ccc3cnc4ccc(-c5cc(Cl)c(O)c(Cl)c5)cc4c32)cc1 [THZ-4-63-1]
Time from nuclear envelope breakdown (NEBD) to anaphase, mean [2]: 66.4 min
Mitotic cell death [3]: efficiently induced mitotic cell death
Cells with failure in metaphase chromosome alignment [4]: approximately 80%
Histone H3 phosphorylation at Thr3 [5]: strong suppression
